In ChEMBL document CHEMBL1201862, “PubChem BioAssay data set” (2004):
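48-hour exposure; five concentrations; linearly interpolated endpoints. At the GI50, growth is halved.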 The source made the active and inactive calls. No stated cut-off is given here; in the data, active = GI50 up to about 1.1 µM and inactive = higher.

Tests used:
Test in all cases: NCI tumour cell line growth inhibition, 48 h
A498 = tested on: A498
A549 = tested on: A549
HCC 2998 = tested on: HCC 2998
HT-29 = tested on: HT-29
Hs-578T = tested on: Hs-578T
IGROV-1 = tested on: IGROV-1
MCF7 = tested on: MCF7
MDA-N = tested on: MDA-N
NCI-H23 = tested on: NCI-H23
NCI-H460 = tested on: NCI-H460
SF-268 = tested on: SF-268
SR = tested on: SR
SW-620 = tested on: SW-620
K562 = tested on: K562
MDA-MB-231 = tested on: MDA-MB-231
NCI-H226 = tested on: NCI-H226
NCI/ADR-RES = tested on: NCI/ADR-RES
T47D = tested on: T47D
UO-31 = tested on: UO-31

| SMILES | GI50 (A498) | GI50 (A549) | GI50 (HCC 2998) | GI50 (HT-29) | GI50 (Hs-578T) | GI50 (IGROV-1) | GI50 (MCF7) | GI50 (MDA-N) | GI50 (NCI-H23) | GI50 (NCI-H460) | GI50 (SF-268) | GI50 (SR) | GI50 (SW-620) | GI50 (K562) | GI50 (MDA-MB-231) | GI50 (NCI-H226) | GI50 (NCI/ADR-RES) | GI50 (T47D) | GI50 (UO-31) |
| --- | --- | --- | --- | --- | --- | --- | --- | --- | --- | --- | --- | --- | --- | --- | --- | --- | --- | --- | --- |
| CCCCc1ccc2[n+](c1)C(C(=O)OCC)=PC2 (stereo not drawn) | > 100 µM (inactive) | > 100 µM (inactive) | > 100 µM (inactive) | 42.8 µM (inactive) | 66.7 µM (inactive) | > 100 µM (inactive) | 30.7 µM (inactive) | 56.9 µM (inactive) | 86.1 µM (inactive) | > 100 µM (inactive) | > 100 µM (inactive) | 32.7 µM (inactive) | > 100 µM (inactive) |  |  |  |  |  |  |
| CC#CC(O)(C(=O)OC1CC(C)N(C)C(C)(C)C1)C1CCCC1 (stereo not drawn) |  | > 100 µM (inactive) | > 100 µM (inactive) | > 100 µM (inactive) |  | > 100 µM (inactive) | > 100 µM (inactive) | > 100 µM (inactive) | > 100 µM (inactive) |  | > 100 µM (inactive) | > 100 µM (inactive) | > 100 µM (inactive) | > 100 µM (inactive) | > 100 µM (inactive) | > 100 µM (inactive) | 29 µM (inactive) | > 100 µM (inactive) | > 100 µM (inactive) |
| COc1cc(N(C)C)ccc1C=c1c2ccccc2n2c1cc(-c1ccccc1)[n+]2C | 1.65 µM (inactive) | 0.197 µM (active) | 0.48 µM (active) | 0.325 µM (active) |  |  | 0.302 µM (active) | 0.308 µM (active) | 0.237 µM (active) | 0.294 µM (active) | 0.495 µM (active) |  | 0.276 µM (active) | 0.177 µM (active) | 0.332 µM (active) | 0.518 µM (active) | 6.47 µM (inactive) | 0.266 µM (active) | 0.493 µM (active) |
| Cc1cc(C)c(N[S+]([O-])c2ccc(Cl)cc2)c(C)c1 (stereo not drawn) | > 100 µM (inactive) | > 100 µM (inactive) | 83.4 µM (inactive) | > 100 µM (inactive) |  |  | > 100 µM (inactive) | 71.1 µM (inactive) | > 100 µM (inactive) | > 100 µM (inactive) | > 100 µM (inactive) | > 100 µM (inactive) | > 100 µM (inactive) | > 100 µM (inactive) |  | > 100 µM (inactive) | > 100 µM (inactive) | > 100 µM (inactive) | > 100 µM (inactive) |
| CC(=O)O[C@@H]1C=C(C)[C@H](CBr)O[C@@]2(C)CC[C@H](Br)C(C)(C)[C@H]12 | > 100 µM (inactive) | > 100 µM (inactive) | > 100 µM (inactive) | > 100 µM (inactive) | > 100 µM (inactive) | > 100 µM (inactive) | > 100 µM (inactive) | > 100 µM (inactive) | > 100 µM (inactive) | > 100 µM (inactive) | > 100 µM (inactive) | 41.2 µM (inactive) | > 100 µM (inactive) | 25.3 µM (inactive) | > 100 µM (inactive) | > 100 µM (inactive) | 2.94 µM (inactive) |  | > 100 µM (inactive) |
| O=C(Nc1ccccc1)C(=O)C(C(=O)c1ccccc1)C(c1ccccc1)c1ccccc1 (stereo not drawn) |  | > 10 µM (inactive) | > 10 µM (inactive) | > 10 µM (inactive) |  | > 10 µM (inactive) | > 10 µM (inactive) | > 10 µM (inactive) | > 10 µM (inactive) |  | > 10 µM (inactive) | > 10 µM (inactive) | > 10 µM (inactive) | > 10 µM (inactive) | > 10 µM (inactive) |  |  | > 10 µM (inactive) |  |
| COCN1C(=O)[C@@H]2CCCN2C(=O)c2cc([N+](=O)[O-])ccc21 | 43 µM (inactive) | 88.3 µM (inactive) |  | 71.9 µM (inactive) | > 100 µM (inactive) | 35.5 µM (inactive) | 46.3 µM (inactive) |  | 86.7 µM (inactive) |  | 35.9 µM (inactive) |  | 65.8 µM (inactive) |  | 61.1 µM (inactive) | 2.21 µM (inactive) | > 100 µM (inactive) | 45.7 µM (inactive) | 35.5 µM (inactive) |
| O=C(COc1ccc(Cl)c(Cl)c1)Nc1ccc[n+](Cc2ccc(S(=O)(=O)F)c(Cl)c2)c1 | > 100 µM (inactive) | > 100 µM (inactive) |  | > 100 µM (inactive) | > 100 µM (inactive) | > 100 µM (inactive) | > 100 µM (inactive) |  | > 100 µM (inactive) | > 100 µM (inactive) | > 100 µM (inactive) | 40.6 µM (inactive) | > 100 µM (inactive) | > 100 µM (inactive) | 36.6 µM (inactive) | > 100 µM (inactive) | > 100 µM (inactive) | > 100 µM (inactive) | > 100 µM (inactive) |
| O=c1cc(N2CCCC2)[nH]c(=O)n1Cc1ccccc1 |  | > 100 µM (inactive) | 8.55 µM (inactive) | > 100 µM (inactive) |  | > 100 µM (inactive) | > 100 µM (inactive) |  | > 100 µM (inactive) | > 100 µM (inactive) |  | > 100 µM (inactive) | > 100 µM (inactive) | > 100 µM (inactive) | > 100 µM (inactive) | 55.3 µM (inactive) | > 100 µM (inactive) |  |  |
| CC12ON=C(c3ccccc3)N1C=CN1C(c3ccccc3)=NOC12 (stereo not drawn) |  | > 100 µM (inactive) | > 100 µM (inactive) |  | > 100 µM (inactive) | > 100 µM (inactive) | > 100 µM (inactive) | > 100 µM (inactive) | > 100 µM (inactive) | > 100 µM (inactive) | > 100 µM (inactive) |  |  |  | > 100 µM (inactive) | > 100 µM (inactive) | > 100 µM (inactive) |  | > 100 µM (inactive) |
| O=C(/C=C/c1ccccc1)c1cc(C(=O)/C=C/c2ccccc2)c(O)cc1O | 31.9 µM (inactive) | > 100 µM (inactive) | 88.3 µM (inactive) | > 100 µM (inactive) | 26.4 µM (inactive) | > 100 µM (inactive) | 51.4 µM (inactive) | > 100 µM (inactive) | > 100 µM (inactive) | > 100 µM (inactive) |  |  | > 100 µM (inactive) |  |  |  |  |  | 41.3 µM (inactive) |
| Nc1nc(N)c2ncn(Cc3ccccc3CCl)c2n1 | > 100 µM (inactive) | > 100 µM (inactive) |  | > 100 µM (inactive) | > 100 µM (inactive) | > 100 µM (inactive) | > 100 µM (inactive) |  | > 100 µM (inactive) | > 100 µM (inactive) | > 100 µM (inactive) | 8.51 µM (inactive) | > 100 µM (inactive) | 50.4 µM (inactive) | > 100 µM (inactive) | > 100 µM (inactive) | > 100 µM (inactive) | > 100 µM (inactive) | > 100 µM (inactive) |
| Cc1cc2[nH]c3c(C#N)c(-c4ccccc4)c(/C=N/c4cccc(C(F)(F)F)c4)c(=O)n3c2cc1C | > 100 µM (inactive) | > 100 µM (inactive) | > 100 µM (inactive) |  |  |  | 79.8 µM (inactive) | 79.3 µM (inactive) | > 100 µM (inactive) | > 100 µM (inactive) | 64.7 µM (inactive) |  | 59.7 µM (inactive) |  | > 100 µM (inactive) | > 100 µM (inactive) | > 100 µM (inactive) | 45 µM (inactive) | > 100 µM (inactive) |
| Cc1cc(N)c(C)c2c1[nH]c1ccc(O)cc12 |  | > 100 µM (inactive) | > 100 µM (inactive) | > 100 µM (inactive) |  |  |  |  | > 100 µM (inactive) | > 100 µM (inactive) | > 100 µM (inactive) | 45 µM (inactive) | 39.1 µM (inactive) | 35 µM (inactive) |  | > 100 µM (inactive) |  |  | > 100 µM (inactive) |
| Nc1ccc2nc(-c3cccc(Cl)c3)cc(O)c2c1 |  | 6.15 µM (inactive) | 6.73 µM (inactive) | 3.41 µM (inactive) | 6.79 µM (inactive) | 29.3 µM (inactive) | 3.46 µM (inactive) |  | 5.79 µM (inactive) | 4.39 µM (inactive) |  |  | 3.55 µM (inactive) |  | 26.5 µM (inactive) |  | 3.56 µM (inactive) | 5.96 µM (inactive) |  |
| O=C(NNS(=O)(=O)c1ccccc1)c1csc(NC(=S)NC2CCCCC2)n1 | 80.5 µM (inactive) | 35.2 µM (inactive) | 29 µM (inactive) | 33.6 µM (inactive) |  | 26.5 µM (inactive) | 41 µM (inactive) | 18.5 µM (inactive) | 48 µM (inactive) |  | 22 µM (inactive) | 36.9 µM (inactive) | 25 µM (inactive) | 56.6 µM (inactive) | 22.8 µM (inactive) | 67.5 µM (inactive) | 38.4 µM (inactive) | 18.7 µM (inactive) | 23.9 µM (inactive) |
| O=C1c2ccccc2C(=O)N1n1c(Cc2ccc([N+](=O)[O-])cc2)n[nH]c1=O | > 100 µM (inactive) | > 100 µM (inactive) | > 100 µM (inactive) | > 100 µM (inactive) |  | > 100 µM (inactive) | > 100 µM (inactive) | > 100 µM (inactive) | > 100 µM (inactive) | > 100 µM (inactive) | > 100 µM (inactive) | > 100 µM (inactive) | > 100 µM (inactive) | > 100 µM (inactive) | > 100 µM (inactive) | > 100 µM (inactive) | > 100 µM (inactive) | 23.3 µM (inactive) | > 100 µM (inactive) |
| O=CC1C[C@@H](N2C(=O)O[C@@H](c3ccccc3)[C@H]2c2ccccc2)[C@@H]1COCc1ccccc1 (stereo partly drawn) | 20.9 µM (inactive) | 29.9 µM (inactive) | 15 µM (inactive) | 17.9 µM (inactive) | 25.6 µM (inactive) | 18.2 µM (inactive) | 17.8 µM (inactive) | 15 µM (inactive) | 17.6 µM (inactive) | 18.3 µM (inactive) | 17.3 µM (inactive) | 10.3 µM (inactive) | 21.5 µM (inactive) | 21.1 µM (inactive) | 15.7 µM (inactive) | 20.2 µM (inactive) | 26.6 µM (inactive) |  | 15.2 µM (inactive) |
